# Experimental data published in BindingDB's records for doi:10.1016/j.ejmech.2016.05.044 (Texas A&M University, 2016).
# Experiment: Negative allosteric modulator activity at CB1 receptor (unknown origin) expressed in HEK293 cell membrane assessed as reduction in CP55,940-induced [35S]GTPgammaS binding by measuring EC50 of CP55,940 at 3.2 uM incubated for 60 mins by liquid scintillation counting analysis (Rvb = 4.7 nM)
row,SMILES,EC50 [nM]
1,CCCCCc1c(C(=O)NCCc2ccc(C(=O)c3ccccc3)cc2)[nH]c2ccc(Cl)cc12,7.9
2,CCCCCCc1c(C(=O)NCCc2ccc(N=[N+]=[N-])cc2)[nH]c2ccc(Cl)cc12,2.1
3,CN(C)c1ccc(CCNC(=O)c2[nH]c3ccc(Cl)cc3c2CN=[N+]=[N-])cc1,1.2
4,CCc1c(C(=O)NCCc2ccc(C(=O)c3ccccc3)cc2)[nH]c2ccc(Cl)cc12,2.7
